Results published in publication PMC10144546, “The Novel Artemisinin Dimer Isoniazide ELI-XXIII-98-2 Induces c-MYC Inhibition, DNA Damage, and Autophagy in Leukemia Cells” (Pharmaceutics, 2023).

Molecular target: T1, c-MYC (Homo sapiens, UniProt P01106)
T1 construct: Recombinant human c-MYC protein (ab169901)
Experiment: microscale thermophoresis with fluorescently labelled recombinant human c-MYC
Format: binding

T1 sequence (P01106 16-454): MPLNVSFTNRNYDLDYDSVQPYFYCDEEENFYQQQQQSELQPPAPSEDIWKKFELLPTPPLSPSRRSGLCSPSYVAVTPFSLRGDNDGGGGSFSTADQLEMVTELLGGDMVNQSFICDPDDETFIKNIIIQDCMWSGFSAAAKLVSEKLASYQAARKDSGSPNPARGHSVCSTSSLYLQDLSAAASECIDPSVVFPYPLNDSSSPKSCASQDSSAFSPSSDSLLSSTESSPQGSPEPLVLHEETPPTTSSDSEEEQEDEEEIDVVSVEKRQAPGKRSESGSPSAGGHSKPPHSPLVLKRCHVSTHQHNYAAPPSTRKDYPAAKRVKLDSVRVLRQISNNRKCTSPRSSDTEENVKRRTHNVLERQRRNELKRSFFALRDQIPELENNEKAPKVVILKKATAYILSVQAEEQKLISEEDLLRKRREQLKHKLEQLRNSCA

Kd: 1190 ± 240 nM
Structure (SMILES): C[C@H]1[C@@H](OCC(CO[C@H]2O[C@@H]3O[C@@]4(C)CC[C@H]5[C@H](C)CC[C@@H]([C@H]2C)[C@@]35OO4)NNC(=O)c2ccncc2)O[C@@H]2O[C@@]3(C)CC[C@H]4[C@H](C)CC[C@@H]1[C@@]24OO3 (stereo partly shown) [ELI-XXIIID-98-2, ELI-XXIII-98-2]
